Results reported in PMC9036659, “Boron-containing capsaicinoids” (RSC Advances, 2021).
Values after ≈ are worked out from the molar mass of the structure shown.

Experiments:
[1] = tested on: green monkey kidney cells Vero (ATCC CCL-81); test: Cytotoxicity assay (Alamar blue), Vero; assay type: cell-based; conditions: for IC50: Chlorocebus sabaeus, Vero, 24 h incubation, average ± SD, Inactive = inhibition above 300 μM, read-out: IC50 Vero (normal cell line)
Method: (§1) The cells (human foreskin BJ fibroblast cells (ATCC CRL-2522), green monkey kidney cells Vero (ATCC CCL-81), human breast adenocarcinoma cells (ATCC HTB-26 MDA-MB 231), human breast adenocarcinoma cells (MCF7 ATCC HTB-22), and human colorectal carcinoma cells (HCT116 ATCC CCL-247)) were grown to 80% confluency, the cells were counted, diluted, and plated into treated 96-well cell culture plates. The BJ fibroblast and Vero cells were plated at a cell density of 10 000 cells per well and the HTB26, HCT116 and MCF7 cells were plated at cell density of 5000 cells per well in 90 μL of respective growth medium (without the addition of antibiotics) and incubated for 24 h to allow cells to adhere to the plates before treatment. Pure compounds were tested in triplicate in serial dilutions of seven concentrations ranging from 2 to 128 μg mL^−1 per well (final well volume of 100 μL, 1% DMSO per well). Each of the cell lines were incubated at 37 °C in a humidified atmosphere of 5% CO2; the BJ fibroblast and Vero cells for 24 h and the HTB-26, HCT116 and MCF7 cells for 72 h. Each plate contained four uninoculated positive controls, four untreated negative controls, and one column containing a concentration range for doxorubicin. Alamar blue was added, 24 h after the treatment, and fluorescence was monitored using a Cytation Gen 5 plate reader using 560 nm Ex/590 Em both at time zero and 4 h after Alamar blue addition. The inferred percentage of cell viability relative to vehicle control wells were calculated after subtracting the time zero emission 590 nm measurement from the final reading and the IC50 was determined. […]
(§2) Cytotoxicity Assay Data Alamar blue was added, 24 h after the treatment, and fluorescence was monitored using a Cytation Gen 5 plate reader using 560 nm Ex/590 Em both at time zero and 4 h after Alamar blue addition. The inferred percentage of cell viability relative to vehicle control wells were calculated after subtracting the time zero emission 590 nm measurement from the final reading and the IC50 was determined.

[2] = tested on: Staphylococcus warneri (ATCC 17917); test: Antimicrobial assay, S. warneri (OD600); assay type: cell-based; conditions: for S. warneri MIC90 / S. warneri IC50: 22 h, 37 °C, Inactive = inhibition above 300 μM; for S. warneri IC50: average ± SD
Method: (§3) The microorganisms (methicillin-resistant S. aureus MRSA 310, vancomycin-resistant E. faecium VRE 379, S. warneri (ATCC 17917), P. vulgaris (ATCC 12454), P. aeruginosa (ATCC 14210), and C. albicans (ATCC 14035)) were grown overnight on agar media. The following day the cultures were transferred into 0.9% saline water into a sterile glass tube. Using the McFarland reader, the turbidity was determined and further diluted into their respective media. The pure compounds were tested at seven different concentrations ranging from 2 to 128 μg mL^−1 in triplicate. Samples were plated into 96 well plates (10 μL in 20% DMSO) and then diluted pathogen (90 μL) was pipetted into the pre-prepared sample plates yielding 5 × 10^5 cfu mL^−1 with a final volume of 100 μL. Antibiotics that are active against specific pathogens were used as positive controls. The plates were incubated into a 37 °C incubator for 22 h. Growth of S. warneri. P. vulgaris, P. aeruginosa and C. albicans were measured by reading optical density (OD600), or in the case of slow growing microorganisms (MRSA and VRE), PrestoBlue was used to assess metabolic activity by measuring fluorescence (535–560)/(590–615) (excitation/emission) using a Thermo Scientific Varioskan Flash plate reader at time zero and then again after incubation of the plates for 22 h at 37 °C. After subtracting the time zero OD600 from the final reading, the percentages of microorganism survival relative to vehicle control wells were calculated. […]
(§4) Antimicrobial Assay Data Growth of S. warneri. P. vulgaris, P. aeruginosa and C. albicans were measured by reading optical density (OD600), or in the case of slow growing microorganisms (MRSA and VRE), PrestoBlue was used to assess metabolic activity by measuring fluorescence (535-560)⁄(590-615) (excitation/emission) using a Thermo Scientific Varioskan Flash plate reader at time zero and then again after incubation of the plates for 22 h at 37 °C. After subtracting the time zero OD600 from the final reading, the percentages of microorganism survival relative to vehicle control wells were calculated. […]

[3] = tested on: human foreskin BJ fibroblast cells (ATCC CRL-2522); test: Cytotoxicity assay (Alamar blue), BJ; assay type: cell-based; conditions: for IC50: Homo sapiens, Fibroblast, 24 h incubation, average ± SD, Inactive = inhibition above 300 μM, read-out: IC50 BJ (normal cell line)
Method: as §1, §2

[4] = tested on: Proteus vulgaris (ATCC 12454); test: Antimicrobial assay, P. vulgaris (OD600); assay type: cell-based
Method: as §3, §4

[5] = tested on: methicillin-resistant Staphylococcus aureus MRSA 310; test: Antimicrobial assay, MRSA (PrestoBlue fluorescence); assay type: cell-based; conditions: for IC50: average ± SD, read-out: MRSA IC50
Method: as §3, §4

[6] = tested on: Candida albicans (ATCC 14035); test: Antimicrobial assay, C. albicans (OD600); assay type: cell-based
Method: as §3, §4

[7] = tested on: human breast adenocarcinoma cells (ATCC HTB-26 MDA-MB 231); test: Cytotoxicity assay (Alamar blue), HTB-26; assay type: cell-based; conditions: for IC50: Homo sapiens, HTB26, 72 h incubation, average ± SD, Inactive = inhibition above 300 μM, read-out: IC50 HTB (cancer cell line)
Method: as §1, §2

[8] = tested on: Pseudomonas aeruginosa (ATCC 14210); test: Antimicrobial assay, P. aeruginosa (OD600); assay type: cell-based
Method: as §3, §4

[9] = tested on: vancomycin-resistant Enterococcus faecium VRE 379; test: Antimicrobial assay, VRE (PrestoBlue fluorescence); assay type: cell-based; conditions: for VRE MIC90 / VRE IC50: 22 h, 37 °C, Inactive = inhibition above 300 μM; for VRE IC50: average ± SD
Method: as §3, §4

[10] = tested on: human breast adenocarcinoma cells (MCF7 ATCC HTB-22); test: Cytotoxicity assay (Alamar blue), MCF7; assay type: cell-based; conditions: for IC50: Homo sapiens, MCF7, 72 h incubation, average ± SD, Inactive = inhibition above 300 μM, read-out: IC50 MCF7 (cancer cell line)
Method: as §1, §2

[11] = tested on: human colorectal carcinoma cells (HCT116 ATCC CCL-247); test: Cytotoxicity assay (Alamar blue), HCT116; assay type: cell-based; conditions: for IC50: Homo sapiens, HCT-116, 72 h incubation, average ± SD, Inactive = inhibition above 300 μM, read-out: IC50 HCT (cancer cell line)
Method: as §1, §2

[12] = tested on: vancomycin-resistant Enterococcus; parameters: method as in doi:10.1139/cjc-2018-0193; conditions: data collected in previous study, Inactive = inhibition above 400 μM, cited from earlier work
MRSA = tested on: MRSA; parameters: method as in doi:10.1139/cjc-2018-0193; conditions: data collected in previous study; Inactive = inhibition above 400 μM; cited from earlier work
[13] = Staphylococcus aureus, MRSA, 22 h, 37 °C, Inactive = inhibition above 300 μM

Structure (SMILES)	cytotoxic activity against Vero (in words) [1]	cytotoxic activity against BJ (in words) [3]	antimicrobial activity against MRSA (in words) [5]	cytotoxic activity against HTB-26 MDA-MB 231 (in words) [7]	cytotoxic activity against MCF7 (in words) [10]	cytotoxic activity against HCT116 (in words) [11]	IC50 [1]	IC50 [3]	IC50 [7]	IC50 [10]	IC50 [11]	VRE IC50 [12]	VRE MIC90 [12]	IC50 (MRSA)	MRSA MIC90 (MRSA)	further results
CCCCCCCCCCCCCCc1ccc(N(Cc2ccc(OC)c(OC)c2)C(=O)CCCCCCCCB2OC(C)(C)C(C)(C)O2)cc1 [Compound 34, N-(3,4-dimethoxybenzyl)-N-(4-tetradecylphenyl)-9-(4,4,5,5-tetramethyl-1,3,2-dioxaborolan-2-yl)nonamide]	inactive	inactive	inactive	inactive	inactive	inactive	–	–	–	–	–	–	–	–	–	antimicrobial activity against S. warneri (in words) [2]: inactive; antimicrobial activity against P. vulgaris (in words) [4]: inactive; antimicrobial activity against C. albicans (in words) [6]: inactive; antimicrobial activity against P. aeruginosa (in words) [8]: inactive; antimicrobial activity against VRE (in words) [9]: inactive
CCCCc1ccc(N(Cc2ccc(OC)c(OC)c2)C(=O)CCCCCCCCB2OC(C)(C)C(C)(C)O2)cc1 [Compound 33, N-(4-butylphenyl)-N-(3,4-dimethoxybenzyl)-9-(4,4,5,5-tetramethyl-1,3,2-dioxaborolan-2-yl)nonamide]	unselective cytotoxic effects	unselective cytotoxic effects	inactive	unselective cytotoxic effects	unselective cytotoxic effects	unselective cytotoxic effects	20.9 ± 1.2 µM	24.2 ± 0.2 µM	21.2 ± 3.5 µM	3.4 ± 2.2 µM	20.3 ± 0.7 µM	–	–	–	–	antimicrobial activity against S. warneri (in words) [2]: inactive; antimicrobial activity against P. vulgaris (in words) [4]: inactive; antimicrobial activity against C. albicans (in words) [6]: inactive; antimicrobial activity against P. aeruginosa (in words) [8]: inactive; antimicrobial activity against VRE (in words) [9]: inactive
OB(O)c1ccccc1 [Phenylboronic acid]	–	–	–	–	–	–	–	–	–	–	–	Inactive	Inactive	170 µM	Inactive	–
COc1cc(CNC(=O)CCCC/C=C/C(C)C)ccc1O [Capsaicin]	–	–	–	–	–	–	–	–	–	–	–	Inactive	Inactive	–	Inactive	MRSA IC50 (MRSA): Inactive
CCCCCCCCCC(=O)N(Cc1ccc(OC)c(OC)c1)c1cccc(B2OC(C)(C)C(C)(C)O2)c1 [Compound 26, N-(3,4-dimethoxyphenylmethyl)-N-[3-(4,4,5,5-tetramethyl-1,3,2-dioxaborolan-2-yl)phenyl]-decanamide]	unselective cytotoxic effects	unselective cytotoxic effects	selectively active	unselective cytotoxic effects	unselective cytotoxic effects	unselective cytotoxic effects	47.2 ± 6.7 µM	38.6 ± 1 µM	31.5 ± 2.7 µM	35.7 ± 16.2 µM	44.3 ± 10.5 µM	–	–	–	–	S. warneri MIC90 [2]: Inactive; S. warneri IC50 [2]: Inactive; IC50 [5, 13]: 13.2 µM; MIC90 ([5]; Staphylococcus aureus, MRSA, 22 h, 37 °C, concentration for 90% growth inhibition, Inactive = inhibition above 300 μM, read-out: MRSA MIC90): 15.3 µM (≈ 8.01 µg/mL); VRE MIC90 [9]: Inactive; VRE IC50 [9]: Inactive
COc1ccc(CN(C(=O)CCCCCCCCB2OC(C)(C)C(C)(C)O2)c2ccccc2)cc1OC [Compound 32, N-(3,4-dimethoxybenzyl)-N-phenyl-9-(4,4,5,5-tetramethyl-1,3,2-dioxaborolan-2-yl)nonamide]	unselective cytotoxic effects	unselective cytotoxic effects	only active against MRSA	unselective cytotoxic effects	unselective cytotoxic effects	unselective cytotoxic effects	77.1 ± 8.4 µM	112 ± 10 µM	42.6 ± 1.8 µM	68.5 ± 15.1 µM	80.1 ± 3.9 µM	–	–	–	–	S. warneri MIC90 [2]: Inactive; S. warneri IC50 [2]: Inactive; MRSA MIC90 ([5]; 22 h, 37 °C, concentration for 90% growth inhibition, Inactive = inhibition above 300 μM): Inactive; IC50 [5, 13]: 154 ± 37.1 µM; VRE MIC90 [9]: Inactive; VRE IC50 [9]: Inactive
COc1cc(CNC(=O)CCCCB2OC(C)(C)C(C)(C)O2)ccc1OCc1ccccc1 [Compound 8a]	–	–	–	–	–	–	–	–	–	–	–	Inactive	Inactive	107 µM	Inactive	–
COc1cc(CNC(=O)CCCCCCCCCCB2OC(C)(C)C(C)(C)O2)ccc1OCc1ccccc1 [Compound 8b]	–	–	–	–	–	–	–	–	–	–	–	–	Inactive	245 µM	Inactive	IC50 ([12]; read-out: VRE IC50): 277 µM
